Test results published in patent publication EP0352609A1 (BIORESEARCH S.p.A., priority 1988, dated 1990).

How the values were obtained:
[1] = test system: antigen SRBC (red sheep corpuscles); test: Delayed hypersensitivity against cell antigen (DTH); type: in vivo, Mice B6 D2 F1; settings: 1 gamma i.p. on day of immunisation
Text: The following experimental tests were used: • 1. Primary antibody response against thymus-dependent antigen, evaluated as the number of plaque-forming splenic cells (PFC) Mice B6 D2 F1, antigen SRBC (red sheep corpuscles) Jerne N.K and Nordin A.A., Plaque formation in ager by single antibody-producing cells Science, 140, 405, 1963. Table A • 2. Delayed hypersensitivity against cell antigen (DTH) Mice B6 D2 F1, antigen SRBC (red sheep corpuscles) Lagrange P.H., Mackaness G.B and Miller T.E., potentiation of T-cell-mediated immunity by selective suppression of antibody formation with cyclophosphamide. J. Exp. Med., 139, 1529, 1974. Table B • 3. Macrophage cytotoxic activity against target tumour induced by Corynebacterium Parvum Mice C57 BL/6; tumour L1210 pretagged with ⁵¹Cr; attack:target ratio 80:1; tumouricide activity evaluated as release of tagging compound and expressed as % of specific cytotoxicity. Herscowitr H.B. et al., Eds., Manual of macrophage methodology, M. Dekker 1981. Table C • 4. Splenic NK (natural cytotoxic cell) activity potentiated with polynucleotide (Poly I:C) Mice C57 BL/6; tumour YAC-1; evaluation as in test 3. Herbeman R.B. Ed., "Natural cell-mediated immunity against tumors". Academic Press, 1980. Table D […]

[2] = test system: plaque-forming splenic cells (PFC); test: Primary antibody response against thymus-dependent antigen (PFC, Jerne plaque assay); type: in vivo, Mice B6 D2 F1; settings: 25 gamma i.p. 6 days before immunisation
Text: The following experimental tests were used: • 1. Primary antibody response against thymus-dependent antigen, evaluated as the number of plaque-forming splenic cells (PFC) Mice B6 D2 F1, antigen SRBC (red sheep corpuscles) Jerne N.K and Nordin A.A., Plaque formation in ager by single antibody-producing cells Science, 140, 405, 1963. Table A • 2. Delayed hypersensitivity against cell antigen (DTH) Mice B6 D2 F1, antigen SRBC (red sheep corpuscles) Lagrange P.H., Mackaness G.B and Miller T.E., potentiation of T-cell-mediated immunity by selective suppression of antibody formation with cyclophosphamide. J. Exp. Med., 139, 1529, 1974. Table B • 3. Macrophage cytotoxic activity against target tumour induced by Corynebacterium Parvum Mice C57 BL/6; tumour L1210 pretagged with ⁵¹Cr; attack:target ratio 80:1; tumouricide activity evaluated as release of tagging compound and expressed as % of specific cytotoxicity. Herscowitr H.B. et al., Eds., Manual of macrophage methodology, M. Dekker 1981. Table C • 4. Splenic NK (natural cytotoxic cell) activity potentiated with polynucleotide (Poly I:C) Mice C57 BL/6; tumour YAC-1; evaluation as in test 3. Herbeman R.B. Ed., "Natural cell-mediated immunity against tumors". Academic Press, 1980. Table D
The treatment was carried out during the inductive stage of the response.

Substance | DTH response (Table B, continuation; column head not given) [1] | % increase in PFC/spleen vs. control [2] [%]
Muramyl dipeptide | 50 | 
Tuftsin |  | 65
